Laboratory results: the NIST ThermoML archive (doi:10.1016/j.fluid.2016.02.009)
Numbers after ± are expanded uncertainties.

Details: Liquid, Vibrating tube method

CCCOCCC [dipropyl ether]
Details	mass density [kg/m3]
283.15 K, 100 kPa	757.39 ± 0.3
283.15 K, 5000 kPa	762.38 ± 0.33
283.15 K, 10000 kPa	767.05 ± 0.36
283.15 K, 15000 kPa	771.45 ± 0.39
283.15 K, 20000 kPa	775.62 ± 0.43
283.15 K, 25000 kPa	779.52 ± 0.46
283.15 K, 30000 kPa	783.28 ± 0.49
283.15 K, 35000 kPa	786.9 ± 0.53
283.15 K, 40000 kPa	790.38 ± 0.56
283.15 K, 45000 kPa	793.67 ± 0.6
283.15 K, 50000 kPa	796.87 ± 0.63
283.15 K, 55000 kPa	800.02 ± 0.66
283.15 K, 60000 kPa	802.99 ± 0.69
283.15 K, 65000 kPa	805.87 ± 0.72
288.15 K, 100 kPa	752.52 ± 0.3
288.15 K, 5000 kPa	757.69 ± 0.33
288.15 K, 10000 kPa	762.5 ± 0.36
288.15 K, 15000 kPa	767.01 ± 0.4
288.15 K, 20000 kPa	771.21 ± 0.43
288.15 K, 25000 kPa	775.22 ± 0.46
288.15 K, 30000 kPa	779.05 ± 0.49
288.15 K, 35000 kPa	782.73 ± 0.53
288.15 K, 40000 kPa	786.26 ± 0.57
288.15 K, 45000 kPa	789.68 ± 0.6
288.15 K, 50000 kPa	792.99 ± 0.64
288.15 K, 55000 kPa	796.16 ± 0.67
288.15 K, 60000 kPa	799.26 ± 0.7
288.15 K, 65000 kPa	802.29 ± 0.73
293.15 K, 100 kPa	747.63 ± 0.3
293.15 K, 5000 kPa	752.98 ± 0.33
293.15 K, 10000 kPa	757.94 ± 0.36
293.15 K, 15000 kPa	762.58 ± 0.4
293.15 K, 20000 kPa	766.89 ± 0.43
293.15 K, 25000 kPa	771.01 ± 0.46
293.15 K, 30000 kPa	774.94 ± 0.5
293.15 K, 35000 kPa	778.69 ± 0.54
293.15 K, 40000 kPa	782.3 ± 0.57
293.15 K, 45000 kPa	785.81 ± 0.61
293.15 K, 50000 kPa	789.18 ± 0.64
293.15 K, 55000 kPa	792.44 ± 0.68
293.15 K, 60000 kPa	795.56 ± 0.71
293.15 K, 65000 kPa	798.64 ± 0.74
298.15 K, 100 kPa	742.71 ± 0.3
298.15 K, 5000 kPa	748.24 ± 0.33
298.15 K, 10000 kPa	753.37 ± 0.37
298.15 K, 15000 kPa	758.15 ± 0.4
298.15 K, 20000 kPa	762.57 ± 0.43
298.15 K, 25000 kPa	766.81 ± 0.47
298.15 K, 30000 kPa	770.85 ± 0.5
298.15 K, 35000 kPa	774.71 ± 0.54
298.15 K, 40000 kPa	778.42 ± 0.58
298.15 K, 45000 kPa	781.98 ± 0.62
298.15 K, 50000 kPa	785.42 ± 0.65
298.15 K, 55000 kPa	788.74 ± 0.69
298.15 K, 60000 kPa	791.97 ± 0.72
298.15 K, 65000 kPa	795.06 ± 0.75
303.15 K, 100 kPa	737.77 ± 0.3
303.15 K, 5000 kPa	743.49 ± 0.33
303.15 K, 10000 kPa	748.78 ± 0.37
303.15 K, 15000 kPa	753.68 ± 0.4
303.15 K, 20000 kPa	758.26 ± 0.44
303.15 K, 25000 kPa	762.61 ± 0.47
303.15 K, 30000 kPa	766.76 ± 0.51
303.15 K, 35000 kPa	770.7 ± 0.55
303.15 K, 40000 kPa	774.48 ± 0.59
303.15 K, 45000 kPa	778.13 ± 0.62
303.15 K, 50000 kPa	781.64 ± 0.66
303.15 K, 55000 kPa	785.01 ± 0.69
303.15 K, 60000 kPa	788.28 ± 0.73
303.15 K, 65000 kPa	791.45 ± 0.76
308.15 K, 100 kPa	732.8 ± 0.3
308.15 K, 5000 kPa	738.69 ± 0.33
308.15 K, 10000 kPa	744.18 ± 0.37
308.15 K, 15000 kPa	749.22 ± 0.4
308.15 K, 20000 kPa	753.95 ± 0.44
308.15 K, 25000 kPa	758.41 ± 0.48
308.15 K, 30000 kPa	762.65 ± 0.51
308.15 K, 35000 kPa	766.7 ± 0.55
308.15 K, 40000 kPa	770.6 ± 0.59
308.15 K, 45000 kPa	774.31 ± 0.63
308.15 K, 50000 kPa	777.92 ± 0.67
308.15 K, 55000 kPa	781.37 ± 0.7
308.15 K, 60000 kPa	784.7 ± 0.74
308.15 K, 65000 kPa	787.86 ± 0.77
313.15 K, 100 kPa	727.8 ± 0.3
313.15 K, 5000 kPa	733.9 ± 0.33
313.15 K, 10000 kPa	739.57 ± 0.37
313.15 K, 15000 kPa	744.77 ± 0.41
313.15 K, 20000 kPa	749.62 ± 0.44
313.15 K, 25000 kPa	754.2 ± 0.48
313.15 K, 30000 kPa	758.55 ± 0.52
313.15 K, 35000 kPa	762.71 ± 0.56
313.15 K, 40000 kPa	766.68 ± 0.6
313.15 K, 45000 kPa	770.47 ± 0.64
313.15 K, 50000 kPa	774.17 ± 0.67
313.15 K, 55000 kPa	777.67 ± 0.71
313.15 K, 60000 kPa	781.06 ± 0.75
313.15 K, 65000 kPa	784.29 ± 0.78
318.15 K, 100 kPa	722.77 ± 0.3
318.15 K, 5000 kPa	729.04 ± 0.34
318.15 K, 10000 kPa	735.01 ± 0.37
318.15 K, 15000 kPa	740.33 ± 0.41
318.15 K, 20000 kPa	745.32 ± 0.45
318.15 K, 25000 kPa	750.04 ± 0.48
318.15 K, 30000 kPa	754.51 ± 0.52
318.15 K, 35000 kPa	758.76 ± 0.57
318.15 K, 40000 kPa	762.84 ± 0.61
318.15 K, 45000 kPa	766.72 ± 0.64
318.15 K, 50000 kPa	770.47 ± 0.68
318.15 K, 55000 kPa	774.07 ± 0.72
318.15 K, 60000 kPa	777.53 ± 0.75
318.15 K, 65000 kPa	780.73 ± 0.79
323.15 K, 100 kPa	717.7 ± 0.3
323.15 K, 5000 kPa	724.25 ± 0.34
323.15 K, 10000 kPa	730.31 ± 0.37
323.15 K, 15000 kPa	735.84 ± 0.41
323.15 K, 20000 kPa	741 ± 0.45
323.15 K, 25000 kPa	745.84 ± 0.49
323.15 K, 30000 kPa	750.43 ± 0.53
323.15 K, 35000 kPa	754.79 ± 0.57
323.15 K, 40000 kPa	758.96 ± 0.61
323.15 K, 45000 kPa	762.93 ± 0.65
323.15 K, 50000 kPa	766.76 ± 0.69
323.15 K, 55000 kPa	770.41 ± 0.73
323.15 K, 60000 kPa	773.95 ± 0.76
323.15 K, 65000 kPa	777.21 ± 0.8
328.15 K, 100 kPa	712.59 ± 0.3
328.15 K, 5000 kPa	719.28 ± 0.34
328.15 K, 10000 kPa	725.68 ± 0.38
328.15 K, 15000 kPa	731.37 ± 0.41
328.15 K, 20000 kPa	736.67 ± 0.45
328.15 K, 25000 kPa	741.66 ± 0.49
328.15 K, 30000 kPa	746.37 ± 0.53
328.15 K, 35000 kPa	750.85 ± 0.58
328.15 K, 40000 kPa	755.1 ± 0.62
328.15 K, 45000 kPa	759.16 ± 0.66
328.15 K, 50000 kPa	763.06 ± 0.7
328.15 K, 55000 kPa	766.79 ± 0.73
328.15 K, 60000 kPa	770.38 ± 0.77
328.15 K, 65000 kPa	773.71 ± 0.81
333.15 K, 100 kPa	707.45 ± 0.3
333.15 K, 5000 kPa	714.57 ± 0.34
333.15 K, 10000 kPa	721.03 ± 0.38
333.15 K, 15000 kPa	726.88 ± 0.42
333.15 K, 20000 kPa	732.34 ± 0.46
333.15 K, 25000 kPa	737.47 ± 0.49
333.15 K, 30000 kPa	742.3 ± 0.54
333.15 K, 35000 kPa	746.89 ± 0.58
333.15 K, 40000 kPa	751.24 ± 0.62
333.15 K, 45000 kPa	755.35 ± 0.67
333.15 K, 50000 kPa	759.32 ± 0.7
333.15 K, 55000 kPa	763.16 ± 0.74
333.15 K, 60000 kPa	766.84 ± 0.78
333.15 K, 65000 kPa	770.23 ± 0.82
